From patent US20150352108A1, “AMINO-PYRIMIDINE COMPOUNDS AS INHIBITORS OF TBK1 AND/OR IKK EPSILON” (Alzheimer's Institute of America, priority 2009, published 2015)

Legend:
IKKε = biological target: T1, IKKε (Homo sapiens, UniProt Q14164); assay: In-vitro IKKε kinase assay ([γ33]ATP filter-plate); format: biochemical; conditions: text bins; read-out: IC50 for inhibition of the kinase activity of IKKε
T1 construct: His-tag; made in house; host or cells: Sf9 insect cells
T1 sequence (Q14164 1-716): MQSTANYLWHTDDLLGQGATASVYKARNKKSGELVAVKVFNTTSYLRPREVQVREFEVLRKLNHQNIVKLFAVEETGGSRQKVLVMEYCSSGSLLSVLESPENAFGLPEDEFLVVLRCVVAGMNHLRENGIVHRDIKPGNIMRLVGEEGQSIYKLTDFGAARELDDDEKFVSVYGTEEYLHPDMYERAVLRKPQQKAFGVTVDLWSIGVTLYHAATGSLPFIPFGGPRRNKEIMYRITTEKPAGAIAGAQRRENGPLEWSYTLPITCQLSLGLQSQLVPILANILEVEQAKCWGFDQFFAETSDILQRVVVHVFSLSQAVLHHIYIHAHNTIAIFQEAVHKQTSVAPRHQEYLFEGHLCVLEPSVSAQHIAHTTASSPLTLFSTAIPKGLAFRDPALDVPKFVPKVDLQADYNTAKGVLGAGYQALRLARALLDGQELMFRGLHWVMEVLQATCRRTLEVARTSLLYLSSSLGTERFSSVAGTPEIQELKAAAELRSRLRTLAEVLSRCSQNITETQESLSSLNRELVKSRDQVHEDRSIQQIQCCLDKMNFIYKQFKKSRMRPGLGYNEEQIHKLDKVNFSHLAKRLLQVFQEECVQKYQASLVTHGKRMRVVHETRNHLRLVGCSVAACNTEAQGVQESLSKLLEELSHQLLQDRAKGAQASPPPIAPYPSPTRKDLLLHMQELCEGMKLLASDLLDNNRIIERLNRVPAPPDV
Summary of the method: (§1)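 His-tagged Sf9-expressed kinases at 0.1 or 0.02 μg/ml (TBK1) and 0.1 or 0.015 μg/ml (IKKε) for normal and sensitized formats, with myelin basic protein or casein substrate. ATP was at 2×Km (60 μM TBK1, 32 μM IKKε) plus 0.3 μCi [γ33]ATP. Reactions ran 30-45 min, were captured on P-81 filters, and counts were normalized to DMSO.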

TBK1 = biological target: T2, TBK1 (Homo sapiens, UniProt Q9UHD2); assay: In-vitro TBK1 kinase assay ([γ33]ATP filter-plate); format: biochemical; conditions: text bins; read-out: IC50 for inhibition of the kinase activity of TBK1
T2 construct: His-tag; made in house; host or cells: Sf9 insect cells
T2 sequence (Q9UHD2 1-729): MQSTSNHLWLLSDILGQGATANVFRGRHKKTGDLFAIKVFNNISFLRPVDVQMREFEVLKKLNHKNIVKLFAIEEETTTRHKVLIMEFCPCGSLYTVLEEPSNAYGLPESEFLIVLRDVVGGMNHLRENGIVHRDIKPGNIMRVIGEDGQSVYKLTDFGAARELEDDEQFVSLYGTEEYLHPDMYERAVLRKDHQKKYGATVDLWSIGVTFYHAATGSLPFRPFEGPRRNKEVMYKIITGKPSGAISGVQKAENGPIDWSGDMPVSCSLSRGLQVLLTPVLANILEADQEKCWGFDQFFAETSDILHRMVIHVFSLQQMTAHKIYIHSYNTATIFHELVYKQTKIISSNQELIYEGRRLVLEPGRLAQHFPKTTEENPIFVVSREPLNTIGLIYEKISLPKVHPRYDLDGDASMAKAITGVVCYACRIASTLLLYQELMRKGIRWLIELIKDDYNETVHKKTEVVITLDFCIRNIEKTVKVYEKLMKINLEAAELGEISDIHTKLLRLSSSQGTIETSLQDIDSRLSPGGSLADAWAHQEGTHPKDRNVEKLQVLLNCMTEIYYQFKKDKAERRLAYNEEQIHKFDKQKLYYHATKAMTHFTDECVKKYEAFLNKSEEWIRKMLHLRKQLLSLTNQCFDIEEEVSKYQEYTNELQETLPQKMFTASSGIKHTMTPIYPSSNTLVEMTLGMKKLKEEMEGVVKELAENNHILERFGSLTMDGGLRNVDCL
Summary of the method: as §1

Row | SMILES | IC50 (IKKε) [nM] | IC50 (TBK1) [nM]
1 | N#Cc1cc(-c2ccnc(Nc3ccc(N4CCOCC4)cc3)n2)ccc1NCc1ccccc1 [Example 224] | 5 to 50 | 10 to 100
2 | COc1ccc(-c2ccnc(Nc3cc(CN4CCOCC4)c(OC)c(OC)c3)n2)cc1C#N [Example 226, 5-(2-{[3,4-Dimethoxy-5-(morpholin-4-ylmethyl)phenyl]amino}pyrimidin-4-yl)-2-methoxybenzonitrile] | 5 to 50 | 10 to 100
3 | N#Cc1cc(-c2ccnc(Nc3ccc(N4CCOCC4)cc3)n2)ccc1OCCNC=O [Example 230, N-{2-[2-cyano-4-(2-{[4-(morpholin-4-yl)phenyl]amino}pyrimidin-4-yl)phenoxy]ethyl} formamide] | 5 to 50 | < 10
4 | N#Cc1cc(-c2ccnc(Nc3ccc(N4CCOCC4)cc3)n2)ccc1OCC1CCN(C(=O)CO)CC1 [Example 233, 2-{[1-(hydroxyacetyl)piperidin-4-yl]methoxy}-5-(2-{[4-(morpholin-4-yl)phenyl]amino}pyrimidin-4-yl)benzonitrile] | 5 to 50 | < 10
5 | COc1cc(C#N)cc(-c2ccnc(Nc3ccc(N4CCOCC4)cc3)n2)c1 [Example 241, 3-Methoxy-5-(2-{[4-(morpholin-4-yl)phenyl]amino}pyrimidin-4-yl)benzonitrile] | 5 to 50 | 10 to 100
6 | N#Cc1cc(-c2ccnc(Nc3ccc(N4CCOCC4)cc3)n2)ccc1NS(=O)(=O)CC(F)(F)F [Example 243, N-[2-cyano-4-(2-{[4-(morpholin-4-yl)phenyl]amino}pyrimidin-4-yl)phenyl]-2,2,2-trifluoroethane-sulfonamide] | 5 to 50 | 10 to 100
7 | COc1ccc(Nc2nccc(-c3cc(Cl)cc(C#N)c3)n2)cc1OC [Example 248, 3-Chloro-5-{2-[(3,4-dimethoxyphenyl)amino]pyrimidin-4-yl}benzonitrile] | 5 to 50 | 10 to 100
8 | COc1ccc(-c2ccnc(Nc3ccc(CN4CCOCC4)cc3)n2)cc1C#N [Example 251, 2-Methoxy-5-(2-{[4-(morpholin-4-ylmethyl)phenyl]amino}pyrimidin-4-yl)benzonitrile] | 5 to 50 | 10 to 100
9 | CN1CCN(c2ccc(Nc3nccc(-c4ccc(OC5CCN(C(=O)CO)C5)c(C#N)c4)n3)cc2)CC1 (stereo not shown) [Example 254, 2-{[1-(hydroxyacetyl)pyrrolidin-3-yl]oxy}-5-(2-{[4-(4-methylpiperazin-1-yl)phenyl]amino}pyrimidin-4-yl)benzonitrile] | 5 to 50 | < 10
10 | CS(=O)(=O)N1CCC(Oc2ccc(-c3ccnc(Nc4ccc(N5CCOCC5)cc4)n3)cc2C#N)C1 (stereo not shown) [Example 257, 2-{[1-(methylsulfonyl)pyrreolidin-3-yl]oxy}-5-(2-{[4-(morpholin-4-yl)phenyl]amino}pyrimidin-4-yl)benzonitrile] | 5 to 50 | 10 to 100
11 | COc1cc(Nc2nccc(-c3ccc(OC)c(C#N)c3)n2)cc(OC2CCN(C)CC2)c1 [Example 259, 2-Methoxy-5-[2-({3-methoxy-5-[(1-methylpiperidin-4-yl)oxy]phenyl}amino)pyrimidin-4-yl]benzonitrile] | 5 to 50 | 10 to 100
12 | COc1ccc(-c2ccnc(Nc3cccc(Cl)c3)n2)cc1C#N [Example 260, 5-{2-[(3-Chlorophenyl)amino]pyrimidin-4-yl}-2-methoxybenzonitrile] | 50 to 500 | 10 to 100
13 | COc1ccc(-c2ccnc(Nc3ccc(N4CCOCC4)cc3)n2)cc1C#N [Example 266, 2-Methoxy-5-(2-{[4-(morpholin-4-yl)phenyl]amino}pyrimidin-4-yl)benzonitrile] | 5 to 50 | < 10
14 | N#Cc1cc(-c2ccnc(Nc3ccc(N4CCOCC4)cc3)n2)ccc1OC1CCN(C(=O)CN)CC1 [Example 268, 2-[(1-Glycylpiperidin-4-yl)oxy]-5-(2-{[4-(morpholin-4-yl)phenyl]amino}pyrimidin-4-yl)benzonitrile] | 5 to 50 | < 10

Other lines, results leading:

Row | IC50 (IKKε) [nM] | IC50 (TBK1) [nM] | SMILES
15 | 5 to 50 | 10 to 100 | COc1cc(C#N)cc(-c2ccnc(Nc3cccc(NC(C)=O)c3)n2)c1 [Example 214, N-(3-{[4-(3-Cyano-5-methoxyphenyl)pyrimidin-2-yl]amino}phenyl) acetamide]
16 | 5 to 50 | < 10 | N#Cc1cc(-c2ccnc(Nc3ccc(N4CCOCC4)cc3)n2)ccc1OC1CCN(C(=O)CCO)CC1 [Example 215, 2-{[1-(3-Hydroxypropanoyl)piperidin-4-yl]oxy}-5-(2-{[4-(morpholin-4-yl)phenyl]amino}pyrimidin-4-yl)benzonitrile]
17 | < 5 | < 10 | N#Cc1cc(-c2ccnc(Nc3ccc(N4CCOCC4)cc3)n2)ccc1NC(=O)C1C[C@@H]1F (stereo partly drawn) [Example 216, (2S)-N-[2-cyano-4-(2-{[4-(morpholin-4-yl)phenyl]amino}pyrimidin-4-yl)phenyl]-2-fluorocyclopropane-carboxamide]
18 | 5 to 50 | < 10 | N#Cc1cc(-c2ccnc(Nc3ccc(N4CCOCC4)cc3)n2)ccc1N [Example 217, 2-Amino-5-(2-{[4-(morpholin-4-yl)phenyl]amino}pyrimidin-4-yl)benzonitrile]
19 | 5 to 50 | < 10 | CNc1ccc(-c2ccnc(Nc3ccc(N4CCOCC4)cc3)n2)cc1C#N [Example 218, 2-(Methylamino)-5-(2-{[4-(morpholin-4-yl)phenyl]amino}pyrimidin-4-yl)benzonitrile]
20 | 5 to 50 | < 10 | N#Cc1cc(-c2ccnc(Nc3ccc(N4CCOCC4)cc3)n2)ccc1OCCN [Example 220, 2-(2-aminoethoxy)-5-(2-{[4-(morpholin-4-yl)phenyl]amino}pyrimidin-4-yl)benzonitrile]
21 | < 5 | 10 to 100 | CC(C)(O)COc1ccc(-c2ccnc(Nc3ccc(N4CCOCC4)cc3)n2)cc1C#N [Example 231, 2-(2-Hydroxy-2-methylpropoxy)-5-(2-{[4-(morpholin-4-yl)phenyl]amino}pyrimidin-4-yl)benzonitrile]
22 | < 5 | < 10 | COC(=O)c1ccc(Nc2nccc(-c3ccc(OC4CCOCC4)c(C#N)c3)n2)cc1OC [Example 235, methyl 4-({4-[3-cyano-4-(tetrahydro-2H-pyran-4-yloxy)phenyl]pyrimidin-2-yl}amino)-2-methoxybenzoate]
23 | < 5 | < 10 | COc1cc(Nc2nccc(-c3ccc(OC4CCOCC4)c(C#N)c3)n2)ccc1S(=O)(=O)NCCCN(C)C [Example 237, 4-({4-[3-cyano-4-(tetrahydro-2H-pyran-4-yloxy)phenyl]pyrimidin-2-yl}amino)-N-[3-(dimethylamino)propyl]-2-methoxybenzene-sulfonamide]
24 | < 5 | < 10 | N#Cc1cc(-c2ccnc(Nc3ccc(N4CCOCC4)cc3)n2)ccc1OCCO [Example 239, 2-(2-Hydroxyethoxy)-5-(2-{[4-(morpholin-4-yl)phenyl]amino}pyrimidin-4-yl)benzonitrile]
25 | < 5 | < 10 | CS(=O)(=O)N1CCC(Oc2ccc(-c3ccnc(Nc4ccc(N5CCOCC5)cc4)n3)cc2C#N)CC1 [Example 246, 2-{[1-(Methylsulfonyl)piperidin-4-yl]oxy}-5-(2-{[4-(morpholin-4-yl)phenyl]amino}pyrimidin-4-yl)benzonitrile]
26 | < 5 | < 10 | N#Cc1cc(-c2ccnc(Nc3ccc(N4CCOCC4)cc3)n2)ccc1OC1CCOC1 (stereo not shown) [Example 261, 5-(2-{[4-(Morpholin-4-yl)phenyl]amino}pyrimidin-4-yl)-2-(tetrahydrofuran-3-yloxy)benzonitrile]
